For this assay, the system named is P. falciparum strain 3D7. Put plainly: In vitro potency against P. falciparum strain 3D7 (SYBR green/DAPI). Format: cell-based. The settings on record: Plasmodium falciparum, reductions in parasitemia, read-out: IC50 values.

We go through 66 compounds from patent publication US8980926B2, “2-aminoindole compounds and methods for the treatment of malaria” (Genzyme Corporation, priority 2009, dated 2015).

As for `NC1=Nc2ccccc2C1(O)c1ccccc1` (stereo not drawn) [Compound 4], the IC50 was in the range of 100 to 500 nM.

Take `COc1ccc(C2(O)C(N)=Nc3ccccc32)cc1` (stereo not drawn) [Compound 5]: the IC50 fell in the range of 100 to 500 nM.

As to `CC(C)(C)c1ccc(C2(O)C(N)=Nc3ccccc32)cc1` (stereo not drawn) [Compound 6], the IC50 is 500 to 1000 nM.

For the compound `COc1cccc(C2(O)C(N)=Nc3ccccc32)c1` (stereo not drawn) [Compound 7], the IC50 fell in the range of 100 to 500 nM.

Consider `NC1=Nc2ccccc2C1(O)c1ccc(C(F)(F)F)cc1` (stereo not drawn) [Compound 8], for which the IC50 is 100 to 500 nM.

As for `CC1(O)C(N)=Nc2ccccc21` (stereo not drawn) [Compound 9], the IC50 is 1000 to 5000 nM.

As for `NC1=Nc2ccccc2C1(O)c1cccc2ccccc12` (stereo not drawn) [Compound 10], the IC50 lay within 1 to 100 nM.

`NC1=Nc2ccc(Cl)cc2C1(O)c1ccc(F)c2ccccc12` (stereo not drawn) [Compound 12]: the IC50 lay within 1 to 100 nM.

On to `NC1=Nc2ccc(Cl)cc2C1(O)c1ccc2c(c1)OCO2` (stereo not drawn) [Compound 13], for which the IC50 is 100 to 500 nM.

In the case of `NC1=Nc2ccc(Cl)cc2C1(O)c1cccc(C(F)(F)F)c1` (stereo not drawn) [Compound 14], the IC50 is 100 to 500 nM.

In the case of `CN(C)c1cccc(C2(O)C(N)=Nc3ccccc32)c1` (stereo not drawn) [Compound 15], the IC50 lay in the range of 100 to 500 nM.

As for `NC1=Nc2ccc(Cl)cc2C1(O)c1ccc(C(F)(F)F)cc1` (stereo not drawn) [Compound 16], the IC50 is 100 to 500 nM.

As for `NC1=Nc2ccc(Cl)cc2C1(O)c1ccc(N2CCOCC2)cc1` (stereo not drawn) [Compound 17], the IC50 is 500 to 1000 nM.

In the case of `CC(C)(C)c1ccc(C2(O)C(N)=Nc3ccc(Cl)cc32)cc1` (stereo not drawn) [Compound 18], the IC50 lay within 100 to 500 nM.

For `NC1=Nc2ccccc2C1(O)c1cccc(C(F)(F)F)c1` (stereo not drawn) [Compound 19], the IC50 fell in the range of 100 to 500 nM.

`NC1=Nc2ccccc2C1(O)c1ccc(N2CCOCC2)cc1` (stereo not drawn) [Compound 20]: the IC50 lay within 500 to 1000 nM.

Turning to `CN(C)c1cccc(C2(O)C(N)=Nc3ccc(Cl)cc32)c1` (stereo not drawn) [Compound 21], the IC50 fell in the range of 100 to 500 nM.

Consider `Cc1ccc(C2(O)C(N)=Nc3ccc(Cl)cc32)cc1` (stereo not drawn) [Compound 22], for which the IC50 was 500 to 1000 nM.

In the case of `COc1cccc(C2(O)C(N)=Nc3ccc(Cl)cc32)c1` (stereo not drawn) [Compound 23], the IC50 was 100 to 500 nM.

As to `NC1=Nc2ccc(Cl)cc2C1(O)c1ccc2ccccc2c1` (stereo not drawn) [Compound 24], the IC50 lay in the range of 100 to 500 nM.

With `NC1=Nc2ccccc2C1(O)c1ccc2ccccc2c1` (stereo not drawn) [Compound 25], the concentration for half-maximal inhibition (IC50) was in the range of 100 to 500 nM.

In the case of `CCCCC1(O)C(N)=Nc2ccc(Cl)cc21` (stereo not drawn) [Compound 26], the IC50 is 100 to 500 nM.

`CC(C)c1ccccc1C1(O)C(N)=Nc2ccc(Cl)cc21` (stereo not drawn) [Compound 27]: the IC50 is 1 to 100 nM.

Regarding `NC1=Nc2ccc(Cl)cc2C1(O)c1cccc(F)c1` (stereo not drawn) [Compound 28], the half-maximal inhibitory concentration (IC50) fell in the range of 100 to 500 nM.

Take `Cc1ccccc1C1(O)C(N)=Nc2ccccc21` (stereo not drawn) [Compound 30]: the IC50 was in the range of 100 to 500 nM.

For `NC1=Nc2cccc(Cl)c2C1(O)c1ccccc1` (stereo not drawn) [Compound 33], the IC50 was 100 to 500 nM.

In the case of `NC1=Nc2cc(Cl)ccc2C1(O)c1ccccc1` (stereo not drawn) [Compound 34], the 50% inhibitory concentration (IC50) is 500 to 1000 nM.

In the case of `NC1=Nc2c(Cl)cccc2C1(O)c1ccccc1` (stereo not drawn) [Compound 35], the IC50 lay within 1000 to 5000 nM.

For the compound `NC1=Nc2ccc(F)cc2C1(O)c1ccccc1` (stereo not drawn) [Compound 36], the IC50 lay in the range of 100 to 500 nM.

For the compound `NC1=Nc2ccc(Cl)c(Cl)c2C1(O)c1ccccc1` (stereo not drawn) [Compound 40], the IC50 is 100 to 500 nM.

For the compound `NC1=Nc2ccc(Br)cc2C1(O)c1ccccc1` (stereo not drawn) [Compound 41], the IC50 fell in the range of 1 to 100 nM.

As to `COc1ccc2c(c1)C(O)(c1ccccc1)C(N)=N2` (stereo not drawn) [Compound 42], the IC50 fell in the range of 100 to 500 nM.

Turning to `NC1=Nc2ccc(Cl)cc2C1(O)CC1CCCCC1` (stereo not drawn) [Compound 43], the IC50 fell in the range of 1 to 100 nM.

Regarding `COc1cc(C2(O)C(N)=Nc3ccc(Cl)cc32)c2c(ccn2C)c1` (stereo not drawn) [Compound 44], the IC50 was in the range of 5000 to 15000 nM.

With `COc1cc(C2(O)C(N)=Nc3ccc(Cl)cc32)c2ccccc2c1` (stereo not drawn) [Compound 45], the IC50 was 5000 to 15000 nM.

For the compound `NC1=Nc2c(ccc(Cl)c2Cl)C1(O)c1ccccc1` (stereo not drawn) [Compound 46], the IC50 was 1000 to 5000 nM.

`NC1=Nc2ccc(OC(F)(F)F)cc2C1(O)c1ccccc1` (stereo not drawn) [Compound 47]: the concentration for half-maximal inhibition (IC50) lay in the range of 1000 to 5000 nM.

Consider `CCCCc1ccc2c(c1)C(O)(c1ccccc1)C(N)=N2` (stereo not drawn) [Compound 48], for which the IC50 lay in the range of 500 to 1000 nM.

As to `NC1=Nc2ccc(Cl)cc2C1(O)c1ccccn1` (stereo not drawn) [Compound 49], the IC50 is 1000 to 5000 nM.

Regarding `NC1=Nc2cc(Cl)c(Cl)cc2C1(O)c1ccccc1` (stereo not drawn) [Compound 51], the IC50 fell in the range of 500 to 1000 nM.

As to `NC1=Nc2cc(Cl)cc(Cl)c2C1(O)c1ccccc1` (stereo not drawn) [Compound 52], the IC50 lay within 1000 to 5000 nM.

In the case of `CC(C)c1ccc2c(c1)C(O)(c1ccccc1)C(N)=N2` (stereo not drawn) [Compound 53], the IC50 fell in the range of 500 to 1000 nM.

Take `CC(C)CC1(O)C(N)=Nc2ccc(Cl)cc21` (stereo not drawn) [Compound 54]: the IC50 lay within 100 to 500 nM.

For the compound `NC1=Nc2c(Cl)cc(Cl)cc2C1(O)c1ccccc1` (stereo not drawn) [Compound 55], the IC50 lay within 1000 to 5000 nM.

With `COc1cc2c(cc1OC)C(O)(c1ccccc1)C(N)=N2` (stereo not drawn) [Compound 56], the IC50 lay in the range of 100 to 500 nM.

Turning to `NC1=Nc2cc3c(cc2C1(O)c1ccccc1)OCO3` (stereo not drawn) [Compound 57], the IC50 fell in the range of 100 to 500 nM.

As for `NC1=Nc2ccc(Cl)cc2C1(O)c1cccc2cccnc12` (stereo not drawn) [Compound 58], the IC50 lay in the range of 100 to 500 nM.

For the compound `NC1=Nc2ccc(Cl)cc2C1(O)c1cccc2ncccc12` (stereo not drawn) [Compound 59], the IC50 was in the range of 100 to 500 nM.

As for `NC1=Nc2ccc(Cl)cc2C1(O)c1nccs1` (stereo not drawn) [Compound 60], the IC50 fell in the range of 1000 to 5000 nM.

Turning to `COc1ccc2c(c1)C(O)(c1cc(OC)cc3ccccc13)C(N)=N2` (stereo not drawn) [Compound 61], the 50% inhibitory concentration (IC50) was in the range of 5000 to 15000 nM.

`NC1=Nc2ccc(O)cc2C1(O)c1ccccc1` (stereo not drawn) [Compound 62]: the IC50 was in the range of 5000 to 15000 nM.

As for `COc1cc(C2(O)C(N)=Nc3ccc(C)cc32)c2ccccc2c1` (stereo not drawn) [Compound 63], the 50% inhibitory concentration (IC50) lay within 5000 to 15000 nM.

For `CCOc1nc(Cl)ccc1C1(O)C(N)=Nc2ccc(C)cc21` (stereo not drawn) [Compound 64], the IC50 is 5000 to 15000 nM.

As to `NC1=Nc2ccc(OCc3ccccc3)cc2C1(O)c1ccccc1` (stereo not drawn) [Compound 65], the IC50 lay within 5000 to 15000 nM.

Take `NC1=Nc2ncccc2C1(O)c1ccccc1` (stereo not drawn) [Compound 66]: the IC50 was 5000 to 15000 nM.

Consider `NC1=Nc2ccc(Cl)cc2C1(O)c1cccc2c1OCC2` (stereo not drawn) [Compound 67], for which the half-inhibitory concentration (IC50) fell in the range of 1 to 100 nM.

As for `CN(C)c1ccc(C2(O)C(N)=Nc3ccc(Cl)cc32)c2ccccc12` (stereo not drawn) [Compound 68], the 50% inhibitory concentration (IC50) was in the range of 1 to 100 nM.

On to `NC1=Nc2ccc(Cl)cc2C1(O)c1cccc2c1oc1ccccc12` (stereo not drawn) [Compound 69], for which the half-inhibitory concentration (IC50) was 100 to 500 nM.

In the case of `COc1ccccc1C1(O)C(N)=Nc2ccc(Cl)cc21` (stereo not drawn) [Compound 70], the IC50 was in the range of 1 to 100 nM.

On to `Cc1ccccc1C1(O)C(N)=Nc2ccc(Cl)cc21` (stereo not drawn) [Compound 71], for which the IC50 fell in the range of 1 to 100 nM.

Turning to `COc1ccc(C2(O)C(N)=Nc3ccc(Cl)cc32)cc1` (stereo not drawn) [Compound 72], the IC50 was 500 to 1000 nM.

Take `COc1cccc(C2(O)C(N)=Nc3ccc(Cl)cc32)c1OC` (stereo not drawn) [Compound 73]: the IC50 fell in the range of 1 to 100 nM.

For the compound `NC1=Nc2ccc(Cl)cc2C1(O)CCc1ccccc1` (stereo not drawn) [Compound 74], the IC50 was in the range of 100 to 500 nM.

`CC(C)(C)C1(O)C(N)=Nc2ccc(Cl)cc21` (stereo not drawn) [Compound 75]: the IC50 is 100 to 500 nM.

In the case of `CC(C)Oc1ccc2c(c1)C(O)(c1ccccc1)C(N)=N2` (stereo not drawn) [Compound 76], the concentration for half-maximal inhibition (IC50) is 100 to 500 nM.

With `NC1=Nc2cc3c(cc2C1(O)c1ccccc1)OCCO3` (stereo not drawn) [Compound 77], the IC50 lay within 100 to 500 nM.

The term IC50 denotes the concentration needed to halve the response being measured.
